In paper PMC8427973, “Regulation of the HTRA2 Protease Activity by an Inhibitory Antibody-Derived Peptide Ligand and the Influence on HTRA2-Specific Protein Interaction Networks in Retinal Tissues” (Biomedicines, 2021):

Test system: recombinant 6xHis-tag HTRA2 and its protein interaction partners in homogenized porcine retina
Experiment: Co-immunoprecipitation (Co-IP) of HTRA2 protein interaction partners, quantitative LC-MS/MS (iBAQ, volcano plot vs CTRL beads)
Design: species or system house swine (Sus scrofa)
Settings: 2 µg HTRA2 + 10 µg compound, n = 3, vs CTRL beads
Description: The retina extraction and homogenization were performed as already described in previous publications. The use of animal by-products of house swine for scientific research purposes was approved by the Kreisverwaltung Mainz-Bingen in Germany (Identification Code: DE 07 315 0006 21, approved on 13 January 2014). In brief, retinal tissues were extracted from freshly removed porcine eye bulbs (house swine, Sus scrofa domestica Linnaeus, n = 30) provided by the local slaughterhouses (Landmetzgerei Harth, Stadecken-Elsheim, Germany). Afterwards, the retinal tissues were homogenized in 2 mL screw cap microtubes filled with 1.4/2.8 mm ceramic beads and 1 mL Tissue Protein Extraction Reagent (T-PER, Thermo Fisher Scientific, Rockford, IL, USA) using a Percellys® 24 homogenizer (VWR International GmbH, Darmstadt, Germany). The homogenized retinal samples were then centrifuged at 14,000× g for 15 min at 4 °C. The protein-containing supernatant was exchanged in a 100 µL phosphate-buffered saline (PBS) using a 3 kDa Amicon® filtration unit (Millipore, Billerica, MA, USA) and, prior to this, was extensively washed in order to completely remove traces of the T-PER buffer. Afterwards, the samples were pooled and the protein concentration was determined using a Pierce Bicinchoninic Acid (BCA) Protein Assay Kit (Thermo Fisher Scientific, Rockford, IL, USA) according to the manufacturer’s protocol, which provided 5 mg aliquots for further analysis.
The recombinant protein HTRA2 with a C-terminal 6xHis-tag motif (Novoprotein Scientific INC., Summit, NJ, USA) and 40 μL HisPurTM Ni-NTA magnetic beads (Thermo Fisher Scientific, Rockford, IL, USA) were spiked into 5 mg homogenized porcine retina. The experiment comprised of four groups: control homogenate (CTRL group), homogenate with 2 μg recombinant HTRA2 (HTRA2 group), homogenate with 2 μg recombinant HTRA2 and 10 μg UCF-101 (UCF-101 group), and homogenate with 2 μg recombinant HTRA2 and 10 μg synthetic CDR peptide (CDR group). The Co-IP of the recombinant HTRA2 and the enrichment of the respective interaction partners was performed with three independent biological replicates for each group (CTRL, HTRA2, UCF-101, and CDR group). After incubation at 4 °C overnight, the 6xHis-tagged protein HTRA2 with the bounded protein interaction partners (co-immunoprecipitation) was isolated with the previously added HisPurTM Ni-NTA magnetic beads (Thermo Fisher Scientific, Rockford, IL, USA) using a magnetic stand. Each bead group was washed twice with 400 μL PBS and the bounded HTRA2 including the protein interaction partners were eluted by pH shift. The protein concentration of each eluate fraction was determined as described above. Afterwards, 50 μg of each eluate fraction was evaporated using a speed vacuum concentrator (SpeedVac) (Eppendorf, Hamburg, Germany) for 45 min at 30 °C and was stored afterwards at −20 °C.
The protein eluate fractions of each group (50 μg; n = 3 biological replicates per group) were separated by 1D SDS PAGE on 10-well NuPAGE® 12% Bis-Tris gels using NuPAGE™ MOPS SDS Running Buffer 20X (Thermo Fisher Scientific, Rockford, IL, USA). The 1D SDS PAGE was performed with the XCell SureLock^TM Mini-Cell Electrophoresis System (Thermo Fisher Scientific, Rockford, IL, USA) under denatured and reduced conditions, as already described in previous publications. The protein separation was performed for 2 h at 4 °C using 150 V, and then the gels were stained with the Novex Colloidal Blue Staining Kit (Thermo Fisher Scientific, Rockford, IL, USA) according to the manufacturer’s protocol. The next day, the gels were destained overnight and scanned using a DGP-9042 scanner (Brother Industries, Nagoya, Japan) at 600 dpi. In-gel trypsin digestion was performed as already described in previous publications. In brief, each protein lane was divided into 17 slices and was subsequently cut into small pieces. […]

ASGYTFTNYGLSWVR [CDR, synthetic peptide encoding a complementary-determining region 1 (CDR1) of polyclonal antibody molecules]
FGF2 (Fibroblast growth factor 2) as significant interaction partner of HTRA2 (HTRA2 alone: -): √ (Proteins fulfilled filtering criteria (p < 0.01; log2 fold change > 1.5))
FTH1 (Ferritin heavy chain) as significant interaction partner of HTRA2 (HTRA2 alone: -): √ (Proteins fulfilled filtering criteria (p < 0.01; log2 fold change > 1.5))
GTF2F2 (General transcription factor IIF subunit 2) as significant interaction partner of HTRA2 (HTRA2 alone: -): - (Proteins failed to fulfill the filtering criteria (p > 0.01; log2 fold change < 1.5))
NAPG (Gamma-soluble NSF attachment protein) as significant interaction partner of HTRA2 (HTRA2 alone: -): √ (Proteins fulfilled filtering criteria (p < 0.01; log2 fold change > 1.5))
PDZD11 (PDZ domain-containing protein 11) as significant interaction partner of HTRA2 (HTRA2 alone: -): √ (Proteins fulfilled filtering criteria (p < 0.01; log2 fold change > 1.5))
PGRMC1 (Membrane-associated progesterone receptor component 1) as significant interaction partner of HTRA2 (HTRA2 alone: -): - (Proteins failed to fulfill the filtering criteria (p > 0.01; log2 fold change < 1.5))
PLRG1 (Pleiotropic regulator 1) as significant interaction partner of HTRA2 (HTRA2 alone: -): √ (Proteins fulfilled filtering criteria (p < 0.01; log2 fold change > 1.5))
POLR2E (DNA-directed RNA polymerases I, II, and III subunit RPABC1) as significant interaction partner of HTRA2 (HTRA2 alone: -): √ (Proteins fulfilled filtering criteria (p < 0.01; log2 fold change > 1.5))
PPA1 (Inorganic pyrophosphatase) as significant interaction partner of HTRA2 (HTRA2 alone: -): - (Proteins failed to fulfill the filtering criteria (p > 0.01; log2 fold change < 1.5))
SFRP1 (Secreted frizzled-related protein 1) as significant interaction partner of HTRA2 (HTRA2 alone: -): √ (Proteins fulfilled filtering criteria (p < 0.01; log2 fold change > 1.5))
TUBA1C (Tubulin alpha-1C chain) as significant interaction partner of HTRA2 (HTRA2 alone: -): √ (Proteins fulfilled filtering criteria (p < 0.01; log2 fold change > 1.5))
UBE2N (Ubiquitin-conjugating enzyme E2 N) as significant interaction partner of HTRA2 (HTRA2 alone: -): √ (Proteins fulfilled filtering criteria (p < 0.01; log2 fold change > 1.5))
CDC42 (Cell division control protein 42 homolog) as significant interaction partner of HTRA2 (HTRA2 alone: n.d.): √ (Proteins fulfilled filtering criteria (p < 0.01; log2 fold change > 1.5))
COPE (Coatomer subunit epsilon) as significant interaction partner of HTRA2 (HTRA2 alone: n.d.): - (Proteins failed to fulfill the filtering criteria (p > 0.01; log2 fold change < 1.5))
MRPL2 (39S ribosomal protein L2, mitochondrial) as significant interaction partner of HTRA2 (HTRA2 alone: n.d.): √ (Proteins fulfilled filtering criteria (p < 0.01; log2 fold change > 1.5))
SNX3 (Sorting nexin-3) as significant interaction partner of HTRA2 (HTRA2 alone: n.d.): √ (Proteins fulfilled filtering criteria (p < 0.01; log2 fold change > 1.5))
SOWAHA (Ankyrin repeat domain-containing protein SOWAHA) as significant interaction partner of HTRA2 (HTRA2 alone: n.d.): √ (Proteins fulfilled filtering criteria (p < 0.01; log2 fold change > 1.5))
TIMM13 (Mitochondrial import inner membrane translocase subunit Tim13) as significant interaction partner of HTRA2 (HTRA2 alone: n.d.): √ (Proteins fulfilled filtering criteria (p < 0.01; log2 fold change > 1.5))
TUBB8 (Tubulin beta-8 chain) as significant interaction partner of HTRA2 (HTRA2 alone: n.d.): √ (Proteins fulfilled filtering criteria (p < 0.01; log2 fold change > 1.5))
AGPS (Alkyldihydroxyacetonephosphate synthase, peroxisomal) as significant interaction partner of HTRA2 (HTRA2 alone: √): √ (Proteins fulfilled filtering criteria (p < 0.01; log2 fold change > 1.5))
ANK2 (Ankyrin-2) as significant interaction partner of HTRA2 (HTRA2 alone: √): - (Proteins failed to fulfill the filtering criteria (p > 0.01; log2 fold change < 1.5))
AP2A1 (AP-2 complex subunit alpha-1) as significant interaction partner of HTRA2 (HTRA2 alone: √): - (Proteins failed to fulfill the filtering criteria (p > 0.01; log2 fold change < 1.5))
AP3D1 (AP-3 complex subunit delta-1) as significant interaction partner of HTRA2 (HTRA2 alone: √): - (Proteins failed to fulfill the filtering criteria (p > 0.01; log2 fold change < 1.5))
AUH (Methylglutaconyl-CoA hydratase, mitochondrial) as significant interaction partner of HTRA2 (HTRA2 alone: √): √ (Proteins fulfilled filtering criteria (p < 0.01; log2 fold change > 1.5))
CS (Citrate synthase, mitochondrial) as significant interaction partner of HTRA2 (HTRA2 alone: √): - (Proteins failed to fulfill the filtering criteria (p > 0.01; log2 fold change < 1.5))
CSTB (Cystatin-B) as significant interaction partner of HTRA2 (HTRA2 alone: √): √ (Proteins fulfilled filtering criteria (p < 0.01; log2 fold change > 1.5))
DNAJA3 (DnaJ homolog subfamily A member 3, mitochondrial) as significant interaction partner of HTRA2 (HTRA2 alone: √): - (Proteins failed to fulfill the filtering criteria (p > 0.01; log2 fold change < 1.5))
DTD1 (D-aminoacyl-tRNA deacylase 1) as significant interaction partner of HTRA2 (HTRA2 alone: √): - (Proteins failed to fulfill the filtering criteria (p > 0.01; log2 fold change < 1.5))
EIF2S3 (Eukaryotic translation initiation factor 2 subunit 3) as significant interaction partner of HTRA2 (HTRA2 alone: √): - (Proteins failed to fulfill the filtering criteria (p > 0.01; log2 fold change < 1.5))
FAM30A (Putative uncharacterized protein FAM30A) as significant interaction partner of HTRA2 (HTRA2 alone: √): - (Proteins failed to fulfill the filtering criteria (p > 0.01; log2 fold change < 1.5))
FLNA (Filamin-A) as significant interaction partner of HTRA2 (HTRA2 alone: √): - (Proteins failed to fulfill the filtering criteria (p > 0.01; log2 fold change < 1.5))
GDI1 (Rab GDP dissociation inhibitor alpha) as significant interaction partner of HTRA2 (HTRA2 alone: √): √ (Proteins fulfilled filtering criteria (p < 0.01; log2 fold change > 1.5))
GLO1 (Lactoylglutathione lyase) as significant interaction partner of HTRA2 (HTRA2 alone: √): √ (Proteins fulfilled filtering criteria (p < 0.01; log2 fold change > 1.5))
GNL1 (Guanine nucleotide-binding protein-like 1) as significant interaction partner of HTRA2 (HTRA2 alone: √): - (Proteins failed to fulfill the filtering criteria (p > 0.01; log2 fold change < 1.5))
HAGH (Hydroxyacylglutathione hydrolase, mitochondrial) as significant interaction partner of HTRA2 (HTRA2 alone: √): - (Proteins failed to fulfill the filtering criteria (p > 0.01; log2 fold change < 1.5))
HTRA2 (Serine protease HTRA2, mitochondrial; target protein) enriched (HTRA2 alone: √): √ (Proteins fulfilled filtering criteria (p < 0.01; log2 fold change > 1.5))
HYOU1 (Hypoxia up-regulated protein 1) as significant interaction partner of HTRA2 (HTRA2 alone: √): - (Proteins failed to fulfill the filtering criteria (p > 0.01; log2 fold change < 1.5))
MCTS1 (Malignant T-cell-amplified sequence 1) as significant interaction partner of HTRA2 (HTRA2 alone: √): √ (Proteins fulfilled filtering criteria (p < 0.01; log2 fold change > 1.5))
ME2 (NAD-dependent malic enzyme, mitochondrial) as significant interaction partner of HTRA2 (HTRA2 alone: √): - (Proteins failed to fulfill the filtering criteria (p > 0.01; log2 fold change < 1.5))
NCKAP1 (Nck-associated protein 1) as significant interaction partner of HTRA2 (HTRA2 alone: √): - (Proteins failed to fulfill the filtering criteria (p > 0.01; log2 fold change < 1.5))
PACS1 (Phosphofurin acidic cluster sorting protein 1) as significant interaction partner of HTRA2 (HTRA2 alone: √): - (Proteins failed to fulfill the filtering criteria (p > 0.01; log2 fold change < 1.5))
POTEE (POTE ankyrin domain family member E) as significant interaction partner of HTRA2 (HTRA2 alone: √): - (Proteins failed to fulfill the filtering criteria (p > 0.01; log2 fold change < 1.5))
PSMC1 (26S proteasome regulatory subunit 4) as significant interaction partner of HTRA2 (HTRA2 alone: √): - (Proteins failed to fulfill the filtering criteria (p > 0.01; log2 fold change < 1.5))
PTGES3 (Prostaglandin E synthase 3) as significant interaction partner of HTRA2 (HTRA2 alone: √): √ (Proteins fulfilled filtering criteria (p < 0.01; log2 fold change > 1.5))
RPS12 (40S ribosomal protein S12) as significant interaction partner of HTRA2 (HTRA2 alone: √): - (Proteins failed to fulfill the filtering criteria (p > 0.01; log2 fold change < 1.5))
SPTBN1 (Spectrin beta chain, non-erythrocytic 1) as significant interaction partner of HTRA2 (HTRA2 alone: √): - (Proteins failed to fulfill the filtering criteria (p > 0.01; log2 fold change < 1.5))
UBE2V1 (Ubiquitin-conjugating enzyme E2 variant 1) as significant interaction partner of HTRA2 (HTRA2 alone: √): √ (Proteins fulfilled filtering criteria (p < 0.01; log2 fold change > 1.5))
